# Positions of bridges follow the written chain, without caps; N, C: chain ends. Non-standard residues stand in square brackets, D forms with d. Residues, ends and D or L forms follow the SMILES beside them. 2Nal = N[C@@H](Cc1ccc2ccccc2c1)C(=O)O; Cit = NC(=O)NCCC[C@H](N)C(=O)O; Ahp(2) = CCCCC[C@H](N)C(=O)O; NMeNle = CCCC[C@H](NC)C(=O)O; NHexGly = CCCCCCNCC(=O)O; Nle = CCCC[C@H](N)C(=O)O; Orn = NCCC[C@H](N)C(=O)O; NBuGly = CCCCNCC(=O)O
# Biological target: T1, mouse VISTA (mVISTA) (Mus musculus, UniProt Q9D659)
# T1 construct: expressed in transfected cells; host or cells: Human embryonic kidney 293T cells
# T1 sequence (Q9D659 33-308): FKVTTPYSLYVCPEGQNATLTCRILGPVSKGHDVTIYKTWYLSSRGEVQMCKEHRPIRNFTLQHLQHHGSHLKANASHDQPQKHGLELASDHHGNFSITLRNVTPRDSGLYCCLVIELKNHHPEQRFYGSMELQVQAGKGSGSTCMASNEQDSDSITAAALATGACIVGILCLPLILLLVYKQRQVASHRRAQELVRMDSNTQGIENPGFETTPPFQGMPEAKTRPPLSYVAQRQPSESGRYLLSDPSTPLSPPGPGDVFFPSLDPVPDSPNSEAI
# Test: Cell-Based Binding High-Content Assay For mVISTA (HC CBA mVISTA)
# Conditions: cell-based binding high-content assay, mVISTA; the 16th table; read-out: HC CBA mVISTA IC50
# Protocol: Cell-Based Binding High-Content Assay For mVISTA
# Human embryonic kidney 293T cells (293T) expressing mouse VISTA (mVISTA) were used for the assessment of compounds competing with the binding of a biotinylated peptide. Cryopreserved cells were thawed in a 37° C. water bath and incubated overnight at a 37° C./5% CO2 incubator in assay culture media DMEM (Life Technologies Inc. Cat. No. 11995-126) supplemented with 10% (v/v) FBS (Sigma, Cat. No. F4135), 1× Penicillin/Streptomycin (Life Technologies Inc. Cat. No. 15140-122). Cells were harvested, washed and resuspended in DMEM media […]. To test compounds under “no-wash” condition, cells were seeded into PDL-coated 384 well plates (Corning, Cat. No. 356663) at 4,000 cells/20 μL. After incubating the cell plates for two hours at a 37° C./5% CO2 incubator, 125 nL of test compound was added using an ECHO. Alternatively, to test compounds under “wash” condition, test compounds were added first, followed by addition of 20 μL cells at a density of 4000 cells/well. After incubation for an hour, the media was removed, followed by addition of 20 μL of fresh media ( ), and plates were then incubated for another hour. To plates either under “no wash” or “wash” condition, the biotinylated peptide was added to a final concentration of 2 nM, and plates were incubated at room temperature for 30 minutes. Fifteen (15) μL of Alexa 647 conjugated Streptavidin (Life Tech, Cat. No. S21374), suspended at 2 μg/ml in media, was added to the assay plate and incubate for 30 minutes. Cells were fixed by adding 15 μL of formaldehyde at a final concentration of 8% (w/v) (Sigma Cat. No. 252549), 20 μg/mL Hoechst (Thermo Scientific Cat. No. 62249) in PBS for 10 minutes at room temperature. The plates were washed 3 times in dPBS, sealed, and read on a CellInsight NXT High Content Screening Platform IC903000 (Thermo Scientific). The 50% effective concentration (IC50) was calculated using the four-parameter logistic formula y=A+((B−A)/(1+((C/x)^D))), where A and B denote minimal and maximal % inhibition, respectively, C is the EC50, D is hill slope and x represent compound concentration.
row,IC50 [nM],SMILES
1,15.3,CCCCCCN1CC(=O)N[C@@H](Cc2ccc(O)cc2)C(=O)N[C@@H](CCCC)C(=O)N[C@@H](CC(=O)O)C(=O)N[C@@H](CCCNC(=N)N)C(=O)N[C@@H](CC(C)C)C(=O)N[C@@H](CCCCC)C(=O)N2CCC[C@H]2C(=O)N[C@@H](C(C)C)C(=O)N[C@@H](CC(=O)O)C(=O)N[C@H](C(=O)N[C@@H](CC(=O)O)C(N)=O)CSCC(=O)N[C@@H](Cc2ccc3ccccc3c2)C(=O)N[C@@H](Cc2ccc(O)cc2)C(=O)N[C@@H](CC(=O)O)C1=O [Ex 1267] ({CH2CO}-[2Nal]YD[NHexGly]Y[Nle]DRL[Ahp(2)]PVDCD-NH2; thioether N-14)
2,2.8,CCCCCCN1CC(=O)N[C@@H](Cc2ccc(O)cc2)C(=O)N[C@@H](CCCC)C(=O)N[C@@H](CC(N)=O)C(=O)N[C@@H](CCCNC(=N)N)C(=O)N[C@@H](CC(C)C)C(=O)N[C@@H](CCCCC)C(=O)N2CCC[C@H]2C(=O)N[C@@H](C(C)C)C(=O)N[C@@H](CO)C(=O)N[C@H](C(=O)NCC(=O)O)CSCC(=O)N[C@@H](Cc2ccc3ccccc3c2)C(=O)N[C@@H](Cc2ccc(O)cc2)C(=O)N[C@@H](CC(=O)O)C1=O [Ex 1272] ({CH2CO}-[2Nal]YD[NHexGly]Y[Nle]NRL[Ahp(2)]PVSCG-OH; thioether N-14)
3,14.3,CCCCCCN1CC(=O)N[C@@H](Cc2ccc(O)cc2)C(=O)N[C@@H](CCCCC)C(=O)NCC(=O)N[C@@H](CCCNC(=N)N)C(=O)N[C@@H](CC(C)C)C(=O)N[C@@H](CCCCC)C(=O)N2CCC[C@H]2C(=O)N[C@@H](C(C)C)C(=O)N[C@@H](CO)C(=O)N[C@H](C(=O)NCC(N)=O)CSCC(=O)N[C@@H](Cc2ccc3ccccc3c2)C(=O)N[C@@H](Cc2ccc(O)cc2)C(=O)N[C@@H](CC(=O)O)C1=O [Ex 1273] ({CH2CO}-[2Nal]YD[NHexGly]Y[Ahp(2)]GRL[Ahp(2)]PVSCG-NH2; thioether N-14)
4,32,CCCCCCN1CC(=O)N[C@@H](Cc2ccc(O)cc2)C(=O)N[C@@H](CC(C)C)C(=O)NCC(=O)N[C@@H](CCCNC(=N)N)C(=O)N[C@@H](CC(C)C)C(=O)N[C@@H](CCCCC)C(=O)N2CCC[C@H]2C(=O)N[C@@H](C(C)C)C(=O)N[C@@H](CO)C(=O)N[C@H](C(=O)NCC(=O)O)CSCC(=O)N[C@@H](Cc2ccc3ccccc3c2)C(=O)N[C@@H](Cc2ccc(O)cc2)C(=O)N[C@@H](CC(=O)O)C1=O [Ex 1274] ({CH2CO}-[2Nal]YD[NHexGly]YLGRL[Ahp(2)]PVSCG-OH; thioether N-14)
5,40.6,CCCCCCN1CC(=O)N[C@@H](Cc2ccc(O)cc2)C(=O)N[C@@H](CCCC)C(=O)NCC(=O)N[C@@H](CCCNC(=N)N)C(=O)N[C@@H](CC(C)C)C(=O)N[C@@H](CCCCC)C(=O)N2CCC[C@H]2C(=O)N[C@@H](C(C)C)C(=O)N[C@@H](CO)C(=O)N[C@H](C(=O)NCC(N)=O)CSCC(=O)N[C@@H](Cc2ccc3ccccc3c2)C(=O)N[C@@H](Cc2ccc(O)cc2)C(=O)N[C@@H](CC(=O)O)C1=O [Ex 1276] ({CH2CO}-[2Nal]YD[NHexGly]Y[Nle]GRL[Ahp(2)]PVSCG-NH2; thioether N-14)
6,23.2,CCCCCCN1CC(=O)N[C@@H](Cc2ccc(O)cc2)C(=O)N[C@@H](C(C)C)C(=O)NCC(=O)N[C@@H](CCCNC(=N)N)C(=O)N[C@@H](CC(C)C)C(=O)N[C@@H](CCCCC)C(=O)N2CCC[C@H]2C(=O)N[C@@H](C(C)C)C(=O)N[C@@H](CO)C(=O)N[C@H](C(=O)NCC(=O)O)CSCC(=O)N[C@@H](Cc2ccc3ccccc3c2)C(=O)N[C@@H](Cc2ccc(O)cc2)C(=O)N[C@@H](CC(=O)O)C1=O [Ex 1277] ({CH2CO}-[2Nal]YD[NHexGly]YVGRL[Ahp(2)]PVSCG-OH; thioether N-14)

# The next lines start with the compound.
row,SMILES,IC50 [nM]
1,CCCCCCN1CC(=O)N[C@@H](Cc2ccc(O)cc2)C(=O)N[C@@H](CCCC)C(=O)N[C@@H](CC(=O)O)C(=O)N[C@@H](CCCNC(N)=O)C(=O)N(C)[C@@H](CCCC)C(=O)N[C@@H](CCCCC)C(=O)N2CCC[C@H]2C(=O)N[C@@H](C(C)C)C(=O)N[C@@H](CC(=O)O)C(=O)N[C@H](C(=O)N[C@@H](CC(=O)O)C(N)=O)CSCC(=O)N[C@@H](Cc2ccc3ccccc3c2)C(=O)N[C@@H](Cc2ccc(O)cc2)C(=O)N[C@@H](CC(=O)O)C1=O [Ex 1265] ({CH2CO}-[2Nal]YD[NHexGly]Y[Nle]D[Cit][NMeNle][Ahp(2)]PVDCD-NH2; thioether N-14),9
2,CCCCCCN1CC(=O)N[C@@H](Cc2ccc(O)cc2)C(=O)N[C@@H](CCCC)C(=O)N[C@@H](CC(=O)O)C(=O)N[C@@H](CCCNC(=N)N)C(=O)N(C)[C@@H](CCCC)C(=O)N[C@@H](CCCCC)C(=O)N2CCC[C@H]2C(=O)N[C@@H](C(C)C)C(=O)N[C@@H](CC(=O)O)C(=O)N[C@H](C(=O)N[C@@H](CC(=O)O)C(N)=O)CSCC(=O)N[C@@H](Cc2ccc3ccccc3c2)C(=O)N[C@@H](Cc2ccc(O)cc2)C(=O)N[C@@H](CC(=O)O)C1=O [Ex 1266] ({CH2CO}-[2Nal]YD[NHexGly]Y[Nle]DR[NMeNle][Ahp(2)]PVDCD-NH2; thioether N-14),6.5
3,CCCCCCN1CC(=O)N[C@@H](Cc2ccc(O)cc2)C(=O)N[C@@H](CCCC)C(=O)N[C@@H](CC(=O)O)C(=O)N[C@@H](CCCN)C(=O)N[C@@H](CC(C)C)C(=O)N[C@@H](CCCCC)C(=O)N2CCC[C@H]2C(=O)N[C@@H](C(C)C)C(=O)N[C@@H](CC(=O)O)C(=O)N[C@H](C(=O)N[C@@H](CC(=O)O)C(N)=O)CSCC(=O)N[C@@H](Cc2ccc3ccccc3c2)C(=O)N[C@@H](Cc2ccc(O)cc2)C(=O)N[C@@H](CC(=O)O)C1=O [Ex 1268] ({CH2CO}-[2Nal]YD[NHexGly]Y[Nle]D[Orn]L[Ahp(2)]PVDCD-NH2; thioether N-14),9.7
4,CCCCC[C@@H]1NC(=O)[C@H](CC(C)C)NC(=O)[C@H](CCCNC(=N)N)NC(=O)CNC(=O)[C@H](C(C)C)NC(=O)[C@H](Cc2ccc(O)cc2)NC(=O)CN(CCCC)C(=O)[C@H](CC(=O)O)NC(=O)[C@H](Cc2ccc(O)cc2)NC(=O)[C@H](Cc2ccc3ccccc3c2)NC(=O)CSC[C@@H](C(=O)NCC(=O)O)NC(=O)[C@H](CC(=O)O)NC(=O)[C@H](C(C)C)NC(=O)[C@@H]2CCCN2C1=O [Ex 1269] ({CH2CO}-[2Nal]YD[NBuGly]YVGRL[Ahp(2)]PVDCG-OH; thioether N-14),15.7
5,CCCCC[C@@H]1NC(=O)[C@H](CC(C)C)NC(=O)[C@H](CCCNC(=N)N)NC(=O)[C@H](CC(N)=O)NC(=O)[C@H](CCCC)NC(=O)[C@H](Cc2ccc(O)cc2)NC(=O)CN(CCCC)C(=O)[C@H](CC(=O)O)NC(=O)[C@H](Cc2ccc(O)cc2)NC(=O)[C@H](Cc2ccc3ccccc3c2)NC(=O)CSC[C@@H](C(=O)NCC(=O)O)NC(=O)[C@H](CC(=O)O)NC(=O)[C@H](C(C)C)NC(=O)[C@@H]2CCCN2C1=O [Ex 1270] ({CH2CO}-[2Nal]YD[NBuGly]Y[Nle]NRL[Ahp(2)]PVDCG-OH; thioether N-14),2.4
6,CCCCC[C@@H]1NC(=O)[C@H](CC(C)C)NC(=O)[C@H](CCCNC(=N)N)NC(=O)[C@H](CC(N)=O)NC(=O)[C@H](CCCC)NC(=O)[C@H](Cc2ccc(O)cc2)NC(=O)CN(CCCC)C(=O)[C@H](CC(=O)O)NC(=O)[C@H](Cc2ccc(O)cc2)NC(=O)[C@H](Cc2ccc3ccccc3c2)NC(=O)CSC[C@@H](C(=O)NCC(N)=O)NC(=O)[C@H](CC(=O)O)NC(=O)[C@H](C(C)C)NC(=O)[C@@H]2CCCN2C1=O [Ex 1271] ({CH2CO}-[2Nal]YD[NBuGly]Y[Nle]NRL[Ahp(2)]PVDCG-NH2; thioether N-14),8
7,CCCCCCN1CC(=O)N[C@@H](Cc2ccc(O)cc2)C(=O)N[C@@H](CC(C)C)C(=O)NCC(=O)N[C@@H](CCCNC(=N)N)C(=O)N[C@@H](CC(C)C)C(=O)N[C@@H](CCCCC)C(=O)N2CCC[C@H]2C(=O)N[C@@H](C(C)C)C(=O)N[C@@H](CO)C(=O)N[C@H](C(=O)NCC(N)=O)CSCC(=O)N[C@@H](Cc2ccc3ccccc3c2)C(=O)N[C@@H](Cc2ccc(O)cc2)C(=O)N[C@@H](CC(=O)O)C1=O [Ex 1275] ({CH2CO}-[2Nal]YD[NHexGly]YLGRL[Ahp(2)]PVSCG-NH2; thioether N-14),35.9

# Source: patent US20240218022A1, “ANTI-VISTA MACROCYCLIC PEPTIDES AND COMPOSITIONS” (BRISTOL-MYERS SQUIBB COMPANY, priority 2022, published 2024)
